# Test system: 885512-296-R-J2-PDC complex spheroid viability
# Test: Anticancer human tumor 885512-296-R-J2-PDC patient-derived breast carcinoma cell line growth inhibition [GQUAD]
# Conditions: for IC50: curve of first compound; for viability, T/C: stronger effect = lower value
# In short: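 Tumor cells were grown as complex spheroids with HUVEC endothelial cells and mesenchymal stem cells as stroma. G-quadruplex stabilizers were combined with targeted agents over half-log dilutions from near the clinical Cmax, or from 10 microM.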
# [1] = second compound 0.0316 µM, first compound 0.0316 µM
# [2] = second compound 0.0316 µM, first compound 0.1 µM
# [3] = second compound 0.0316 µM, first compound 0.316 µM
# [4] = second compound 0.0316 µM, first compound 1 µM
# [5] = second compound 0.0316 µM, first compound 3.16 µM
# [6] = second compound 0.0316 µM, first compound 10 µM
# [7] = second compound 0.1 µM, first compound 0.0316 µM
# [8] = second compound 0.1 µM, first compound 0.1 µM
# [9] = second compound 0.1 µM, first compound 0.316 µM
# [10] = second compound 0.1 µM, first compound 1 µM
# [11] = second compound 0.1 µM, first compound 3.16 µM
# [12] = second compound 0.1 µM, first compound 10 µM
# [13] = second compound 0.316 µM, first compound 0.0316 µM
# [14] = second compound 0.316 µM, first compound 0.1 µM
# [15] = second compound 0.316 µM, first compound 0.316 µM
# [16] = second compound 0.316 µM, first compound 1 µM
# [17] = second compound 0.316 µM, first compound 3.16 µM
# [18] = second compound 0.316 µM, first compound 10 µM
# [19] = second compound 1 µM, first compound 0.0316 µM
# [20] = second compound 1 µM, first compound 0.1 µM
# [21] = second compound 1 µM, first compound 0.316 µM
# [22] = second compound 1 µM, first compound 1 µM
# [23] = second compound 1 µM, first compound 3.16 µM
# [24] = second compound 1 µM, first compound 10 µM
# [25] = second compound 3.16 µM, first compound 0.0316 µM
# [26] = second compound 3.16 µM, first compound 0.1 µM
# [27] = second compound 3.16 µM, first compound 0.316 µM
# [28] = second compound 3.16 µM, first compound 1 µM
# [29] = second compound 3.16 µM, first compound 3.16 µM
# [30] = second compound 3.16 µM, first compound 10 µM
# [31] = second compound 10 µM, first compound 0.0316 µM
# [32] = second compound 10 µM, first compound 0.1 µM
# [33] = second compound 10 µM, first compound 0.316 µM
# [34] = second compound 10 µM, first compound 1 µM
# [35] = second compound 10 µM, first compound 3.16 µM
# [36] = second compound 10 µM, first compound 10 µM
# 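Further: spheroids exposed to the compounds for one week.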
# 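Wherever viability, T/C is given: percent of tumor spheroid viability relative to DMSO vehicle control wells.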
compound,measurement,setting,value
CC(C)n1c(=O)n(C)c2cnc3cc(F)c(-c4ccc(OCCCN5CCCCC5)nc4)cc3c21 + Cc1cnc(CNC(=O)c2c(=O)c3ccc(N4CCCN(C)CC4)nc3n3c2sc2ccccc23)cn1,IC50,second compound 0.0316 µM,< 31.6 nM
same,IC50,second compound 0.1 µM,< 31.6 nM
same,IC50,second compound 0.316 µM,< 31.6 nM
same,IC50,second compound 1 µM,< 31.6 nM
same,IC50,second compound 3.16 µM,< 31.6 nM
same,IC50,second compound 10 µM,< 31.6 nM
same,"viability, T/C",[1],28.4%
same,"viability, T/C",[2],20.2%
same,"viability, T/C",[3],26.6%
same,"viability, T/C",[4],39.4%
same,"viability, T/C",[5],46.5%
same,"viability, T/C",[6],49.1%
same,"viability, T/C",[7],15%
same,"viability, T/C",[8],16.6%
same,"viability, T/C",[9],24%
same,"viability, T/C",[10],18.1%
same,"viability, T/C",[11],31.6%
same,"viability, T/C",[12],30.8%
same,"viability, T/C",[13],13.3%
same,"viability, T/C",[14],13.1%
same,"viability, T/C",[15],12.6%
same,"viability, T/C",[16],16.9%
same,"viability, T/C",[17],14.6%
same,"viability, T/C",[18],19.5%
same,"viability, T/C",[19],18.1%
same,"viability, T/C",[20],16.6%
same,"viability, T/C",[21],16.4%
same,"viability, T/C",[22],18%
same,"viability, T/C",[23],23.2%
same,"viability, T/C",[24],12.4%
same,"viability, T/C",[25],21.9%
same,"viability, T/C",[26],23.4%
same,"viability, T/C",[27],21.7%
same,"viability, T/C",[28],21.8%
same,"viability, T/C",[29],24.8%
same,"viability, T/C",[30],9.39%
same,"viability, T/C",[31],0.15%
same,"viability, T/C",[32],0.19%
same,"viability, T/C",[33],0.2%
same,"viability, T/C",[34],0.17%
same,"viability, T/C",[35],0.16%
same,"viability, T/C",[36],0.16%
CC1COCCN1c1cc(C2(O)CC3CCC(C2)O3)c2cnn(-c3ccn[nH]3)c2n1 (centres undefined) + Cc1cnc(CNC(=O)c2c(=O)c3ccc(N4CCCN(C)CC4)nc3n3c2sc2ccccc23)cn1,IC50,second compound 0.0316 µM,< 31.6 nM
same,IC50,second compound 0.1 µM,< 31.6 nM
same,IC50,second compound 0.316 µM,< 31.6 nM
same,IC50,second compound 1 µM,< 31.6 nM
same,IC50,second compound 3.16 µM,< 31.6 nM
same,IC50,second compound 10 µM,< 31.6 nM
same,"viability, T/C",[1],5.92%
same,"viability, T/C",[2],3.36%
same,"viability, T/C",[3],3.06%
same,"viability, T/C",[4],4.49%
same,"viability, T/C",[5],5.92%
same,"viability, T/C",[6],7.8%
same,"viability, T/C",[7],5.95%
same,"viability, T/C",[8],3.36%
same,"viability, T/C",[9],3.12%
same,"viability, T/C",[10],4.44%
same,"viability, T/C",[11],6.08%
same,"viability, T/C",[12],7%
same,"viability, T/C",[13],4.59%
same,"viability, T/C",[14],4.72%
same,"viability, T/C",[15],4.92%
same,"viability, T/C",[16],5.25%
same,"viability, T/C",[17],7.22%
same,"viability, T/C",[18],7.55%
same,"viability, T/C",[19],6.13%
same,"viability, T/C",[20],4.5%
same,"viability, T/C",[21],5.8%
same,"viability, T/C",[22],6.61%
same,"viability, T/C",[23],7.78%
same,"viability, T/C",[24],6.44%
same,"viability, T/C",[25],2.58%
same,"viability, T/C",[26],3.35%
same,"viability, T/C",[27],4.73%
same,"viability, T/C",[28],4.41%
same,"viability, T/C",[29],2.5%
same,"viability, T/C",[30],1.93%
same,"viability, T/C",[31],0.03%
same,"viability, T/C",[32],0.09%
same,"viability, T/C",[33],0.14%
same,"viability, T/C",[34],0.07%
same,"viability, T/C",[35],0.12%
same,"viability, T/C",[36],0.12%
